Assays:
Type in all cases: in vivo
[1] = test system: soybean (Glycine max L., var. Pella 86, SOY); assay: Post-emerge greenhouse screening, crop safety (phytotoxicity rating); conditions: 14 days after application
From the text: (§1) A standard greenhouse herbicide activity screening system was used to evaluate the herbicidal efficacy and crop safety of these test compounds. Seven broadleaf weed species including redroot pigweed (Amaranthus retroflexus, AMARE), velvetleaf (Abutilon theophrasti, ABUTH), sicklepod (Cassia obtusifolia, CASOB), ivyleaf morningglory (Ipomoea hederacea, IPOHE), lambsquarters (Chenopodium album, CHEAL), common ragweed (Ambrosia artemisiifolia L., AMBEL), and cocklebur (Xanthium strumarium, XANST) were used as test species. Four grass weed species including green foxtail (Setaria viridis, SETVI), barnyardgrass (Echinochloa crus-galli, ECHCG), johnsongrass (Sorghum halepense, SORHA), and large crabgrass (Digitaria sanguinalis, DIGSA) were also used. In addition, three crop species, field corn (Zea mays L., var. Dekalb 535, CORN), soybean (Glycine max L., var. Pella 86, SOY), and upland rice (Oryza sp., var.Tebonnet, RICE) were included.
(§2) All plants were grown in 10 cm square plastic pots which were filled with a sandy loam soil mix. For pre-emerge tests, seeds were planted one day prior to application of the test compounds. For post-emerge tests, seeds were planted 8-21 days prior to the test to allow emergence and good foliage development prior to application of the test substances. At the time of the post-emerge application, plants of all species were usually at the 2-3 leaf stage of development.
(§3) All test compounds were dissolved in acetone and applied to the test units in a volume of 187 1/ha. Test materials were applied at rates ranging from 15 g ai/ha to 1000 g ai/ha using a track sprayer equipped with a TJ8001E even flow flat fan spray nozzle. Plants were arranged on a shelf so that the top of the canopy (post-emerge) or top of the soil surface (pre-emerge) was 40-45 cm below the nozzle. Pressurized air was used to force the test solution through the nozzle as it was mechanically advanced (via electrically driven chain drive) over the top of all test plants/pots. This application simulates a typical commercial field herbicide application.
(§4) In the post-emerge test, a commercial non-ionic surfactant was also included (0.25% v/v) to enhance wetting of the leaf surfaces of target plants. Immediately after application, test units of the pre-emerge applications were watered at the soil surface to incorporate the test materials. Subsequently, these test units were bottom-watered. Post-emerge test units were always bottom-watered.
(§5) At 14 days after application of the test materials, phytotoxicity ratings were recorded. A rating scale of 0-100 was used as previously described in Research Methods in Weed Science, 2nd edition, B. Truelove, Ed., Southern Weed Science Society, Auburn University, Auburn, Ala., 1977. Briefly, “0” corresponds to no damage and “100” corresponds to complete death of all plants in the test unit. This scale was used both to determine efficacy against weed species and damage to crop species. Herbicide activity data for various compounds of this invention, which are shown by compound No. in Tables I-VI, are shown in Tables VIII-IX.

[2] = test system: upland rice (Oryza sp., var.Tebonnet, RICE); assay: as above; conditions: 14 days after application
From the text: as §1, §2, §3, §4, §5

[3] = test system: field corn (Zea mays L., var. Dekalb 535, CORN); assay: Pre-emerge greenhouse screening, crop safety (phytotoxicity rating); conditions: 14 days after application
From the text: as §1, §2, §3, §4, §5

[4] = test system: soybean (Glycine max L., var. Pella 86, SOY); assay: as above; conditions: 14 days after application
From the text: as §1, §2, §3, §4, §5

[5] = test system: upland rice (Oryza sp., var.Tebonnet, RICE); assay: as above; conditions: 14 days after application
From the text: as §1, §2, §3, §4, §5

[6] = test system: ivyleaf morningglory (Ipomoea hederacea, IPOHE); assay: Pre-emerge greenhouse herbicide activity screening, phytotoxicity rating; conditions: 14 days after application
From the text: as §1, §2, §3, §4, §5

[7] = test system: redroot pigweed (Amaranthus retroflexus, AMARE); assay: as above; conditions: 14 days after application
From the text: as §1, §2, §3, §4, §5

[8] = test system: sicklepod (Cassia obtusifolia, CASOB); assay: as above; conditions: 14 days after application
From the text: as §1, §2, §3, §4, §5

[9] = test system: large crabgrass (Digitaria sanguinalis, DIGSA); assay: as above; conditions: 14 days after application
From the text: as §1, §2, §3, §4, §5

[10] = test system: barnyardgrass (Echinochloa crus-galli, ECHCG); assay: as above; conditions: 14 days after application
From the text: as §1, §2, §3, §4, §5

[11] = test system: lambsquarters (Chenopodium album, CHEAL); assay: as above; conditions: 14 days after application
From the text: as §1, §2, §3, §4, §5

[12] = test system: velvetleaf (Abutilon theophrasti, ABUTH); assay: as above; conditions: 14 days after application
From the text: as §1, §2, §3, §4, §5

[13] = test system: common ragweed (Ambrosia artemisiifolia L., AMBEL); assay: as above; conditions: 14 days after application
From the text: as §1, §2, §3, §4, §5

[14] = test system: green foxtail (Setaria viridis, SETVI); assay: as above; conditions: 14 days after application
From the text: as §1, §2, §3, §4, §5

[15] = test system: johnsongrass (Sorghum halepense, SORHA); assay: as above; conditions: 14 days after application
From the text: as §1, §2, §3, §4, §5

[16] = test system: field corn (Zea mays L., var. Dekalb 535, CORN); assay: Post-emerge greenhouse screening, crop safety / corn selectivity (phytotoxicity rating); conditions: 14 days after application
From the text: as §1, §2, §3, §4, §5

[17] = test system: ivyleaf morningglory (Ipomoea hederacea, IPOHE); assay: Post-emerge greenhouse herbicide activity screening, phytotoxicity rating; conditions: 14 days after application
From the text: as §1, §2, §3, §4, §5

[18] = test system: redroot pigweed (Amaranthus retroflexus, AMARE); assay: as above
From the text: as §1, §2, §3, §4, §5

[19] = test system: sicklepod (Cassia obtusifolia, CASOB); assay: as above
From the text: as §1, §2, §3, §4, §5

[20] = test system: large crabgrass (Digitaria sanguinalis, DIGSA); assay: as above; conditions: 14 days after application
From the text: as §1, §2, §3, §4, §5

[21] = test system: barnyardgrass (Echinochloa crus-galli, ECHCG); assay: as above; conditions: 14 days after application
From the text: as §1, §2, §3, §4, §5

[22] = test system: lambsquarters (Chenopodium album, CHEAL); assay: as above
From the text: as §1, §2, §3, §4, §5

[23] = test system: velvetleaf (Abutilon theophrasti, ABUTH); assay: as above; conditions: 14 days after application
From the text: as §1, §2, §3, §4, §5

[24] = test system: common ragweed (Ambrosia artemisiifolia L., AMBEL); assay: as above
From the text: as §1, §2, §3, §4, §5

[25] = test system: green foxtail (Setaria viridis, SETVI); assay: as above
From the text: as §1, §2, §3, §4, §5

[26] = test system: johnsongrass (Sorghum halepense, SORHA); assay: as above; conditions: 14 days after application
From the text: as §1, §2, §3, §4, §5

[27] = 125 g ai/ha, 14 days after application
[28] = 250 g ai/ha, 14 days after application

Which results are given for `Cn1c(=S)n(C)c(=O)n(-c2cc(Oc3ncccn3)c(Cl)cc2F)c1=O` [Compound 2-1, 3-[4-Chloro-2-fluoro-5-(2-pyrimidinyloxy)phenyl]-5,6-dihydro-1,5-dimethyl-6-thioxo-1,3,5-triazine-2,4(1H,3H)-dione]?
SOY crop damage, phytotoxicity rating (0-100 scale) ([1]; 125 g ai/ha): 50; SOY crop damage, phytotoxicity rating (0-100 scale) ([1]; 250 g ai/ha): 65; RICE crop damage, phytotoxicity rating (0-100 scale) ([2]; 125 g ai/ha): 15; RICE crop damage, phytotoxicity rating (0-100 scale) ([2]; 250 g ai/ha): 40; CORN crop damage, phytotoxicity rating (0-100 scale) ([3]; 125 g ai/ha): 50; CORN crop damage, phytotoxicity rating (0-100 scale) ([3]; 250 g ai/ha): 65; SOY crop damage, phytotoxicity rating (0-100 scale) ([4]; 125 g ai/ha): 90; SOY crop damage, phytotoxicity rating (0-100 scale) ([4]; 250 g ai/ha): 100; RICE crop damage, phytotoxicity rating (0-100 scale) ([5]; 125 g ai/ha): 99; RICE crop damage, phytotoxicity rating (0-100 scale) ([5]; 250 g ai/ha): 99; IPOHE phytotoxicity rating (0-100 scale) ([6]; 125 g ai/ha): 100; IPOHE phytotoxicity rating (0-100 scale) ([6]; 250 g ai/ha): 100; AMARE phytotoxicity rating (0-100 scale) ([7]; 125 g ai/ha): 100; AMARE phytotoxicity rating (0-100 scale) ([7]; 250 g ai/ha): 100; CASOB phytotoxicity rating (0-100 scale) ([8]; 125 g ai/ha): 100; CASOB phytotoxicity rating (0-100 scale) ([8]; 250 g ai/ha): 100; DIGSA phytotoxicity rating (0-100 scale) ([9]; 125 g ai/ha): 100; DIGSA phytotoxicity rating (0-100 scale) ([9]; 250 g ai/ha): 100; ECHCG phytotoxicity rating (0-100 scale) ([10]; 125 g ai/ha): 100; ECHCG phytotoxicity rating (0-100 scale) ([10]; 250 g ai/ha): 100; CHEAL phytotoxicity rating (0-100 scale) ([11]; 125 g ai/ha): 100; CHEAL phytotoxicity rating (0-100 scale) ([11]; 250 g ai/ha): 100; ABUTH phytotoxicity rating (0-100 scale) ([12]; 125 g ai/ha): 100; ABUTH phytotoxicity rating (0-100 scale) ([12]; 250 g ai/ha): 100; AMBEL phytotoxicity rating (0-100 scale) ([13]; 125 g ai/ha): 100; AMBEL phytotoxicity rating (0-100 scale) ([13]; 250 g ai/ha): 100; SETVI phytotoxicity rating (0-100 scale) ([14]; 125 g ai/ha): 100; SETVI phytotoxicity rating (0-100 scale) ([14]; 250 g ai/ha): 100; SORHA phytotoxicity rating (0-100 scale) ([15]; 125 g ai/ha): 100; SORHA phytotoxicity rating (0-100 scale) ([15]; 250 g ai/ha): 100; CORN crop damage, phytotoxicity rating (0-100 scale) ([16]; 125 g ai/ha): 0; CORN crop damage, phytotoxicity rating (0-100 scale) ([16]; 250 g ai/ha): 5; IPOHE phytotoxicity rating (0-100 scale) ([17]; 125 g ai/ha): 80; IPOHE phytotoxicity rating (0-100 scale) ([17]; 250 g ai/ha): 99; AMARE phytotoxicity rating (0-100 scale) ([18]; 31.3 g ai/ha): 100; AMARE phytotoxicity rating (0-100 scale) ([18]; 62.5 g ai/ha): 100; AMARE phytotoxicity rating (0-100 scale) [18, 27]: 100; AMARE phytotoxicity rating (0-100 scale) [18, 28]: 100; CASOB phytotoxicity rating (0-100 scale) ([19]; 31.3 g ai/ha): 60; CASOB phytotoxicity rating (0-100 scale) ([19]; 62.5 g ai/ha): 60; CASOB phytotoxicity rating (0-100 scale) [19, 27]: 65; CASOB phytotoxicity rating (0-100 scale) [19, 28]: 75; DIGSA phytotoxicity rating (0-100 scale) ([20]; 125 g ai/ha): 55; DIGSA phytotoxicity rating (0-100 scale) ([20]; 250 g ai/ha): 55; ECHCG phytotoxicity rating (0-100 scale) ([21]; 125 g ai/ha): 50; ECHCG phytotoxicity rating (0-100 scale) ([21]; 250 g ai/ha): 80; CHEAL phytotoxicity rating (0-100 scale) ([22]; 31.3 g ai/ha): 100; CHEAL phytotoxicity rating (0-100 scale) ([22]; 62.5 g ai/ha): 100; CHEAL phytotoxicity rating (0-100 scale) [22, 27]: 100; CHEAL phytotoxicity rating (0-100 scale) [22, 28]: 100; ABUTH phytotoxicity rating (0-100 scale) ([23]; 125 g ai/ha): 100; ABUTH phytotoxicity rating (0-100 scale) ([23]; 250 g ai/ha): 100; AMBEL phytotoxicity rating (0-100 scale) ([24]; 31.3 g ai/ha): 50; AMBEL phytotoxicity rating (0-100 scale) ([24]; 62.5 g ai/ha): 50; AMBEL phytotoxicity rating (0-100 scale) [24, 27]: 60; AMBEL phytotoxicity rating (0-100 scale) [24, 28]: 65; SETVI phytotoxicity rating (0-100 scale) ([25]; 31.3 g ai/ha): 0; SETVI phytotoxicity rating (0-100 scale) ([25]; 62.5 g ai/ha): 60; SETVI phytotoxicity rating (0-100 scale) [25, 27]: 70; SETVI phytotoxicity rating (0-100 scale) [25, 28]: 80; SORHA phytotoxicity rating (0-100 scale) ([26]; 125 g ai/ha): 60; SORHA phytotoxicity rating (0-100 scale) ([26]; 250 g ai/ha): 70

Source: patent US6613718B2, “Aryl ether derivatives and processes for their preparation and herbicidal and desiccant compositions containing them” (Ishihara Sangyo Kaisha, Ltd., priority 2001, dated 2003)
